Measured values from patent publication US12172990B2 (Constellation Pharmaceuticals, Inc., priority 2018, dated 2024).

What was measured:
full length human TREX1 = full length human TREX1 (Homo sapiens (Human), UniProt Q9NSU2); test: TREX1 Biochemical Assay (fluorescence assay measuring degradation of dsDNA substrate); conditions: 150 pM TREX1, 60 nM dsDNA substrate, 25 minutes at room temperature
Summary of the method: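 His-Tev-tagged full-length human TREX1 expressed in E. coli, 150 pM final, with 60 nM TEX615/quencher-labelled 9-mer dsDNA in Tris pH 7.4, NaCl, DTT, BSA, Tween-20, MgCl2 and 1.0% DMSO; 25 min at room temperature, EDTA-quenched. Fluorescence 615 nm (excitation 570 nm); 10-point IC50 by four-parameter fit against pre-quenched and no-inhibitor controls.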

[1] = biological target: human TREX2 (residues M44-A279) (Homo sapiens (Human), UniProt Q9BQ50); test: TREX2 Biochemical Assay (fluorescence assay measuring degradation of dsDNA substrate); conditions: 2.5 nM TREX2, 60 nM dsDNA substrate, 25 minutes at room temperature
Summary of the method: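 Final conditions: 2.5 nM His-Tev-tagged TREX2 (E. coli-expressed), 60 nM fluorophore/quencher-labelled dsDNA, 50 mM Tris pH 7.4, 150 mM NaCl, 100 mM MgCl2, 1% DMSO; 10-point compound dose-response. Incubated 25 min at room temperature, then EDTA-quenched; fluorescence read at ex 570/em 615 nm. IC50 from four-parameter fit against pre-quenched and no-inhibitor controls.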

Chain of human TREX2 (residues M44-A279) (Q9BQ50 whole entry, the tested form may be a part): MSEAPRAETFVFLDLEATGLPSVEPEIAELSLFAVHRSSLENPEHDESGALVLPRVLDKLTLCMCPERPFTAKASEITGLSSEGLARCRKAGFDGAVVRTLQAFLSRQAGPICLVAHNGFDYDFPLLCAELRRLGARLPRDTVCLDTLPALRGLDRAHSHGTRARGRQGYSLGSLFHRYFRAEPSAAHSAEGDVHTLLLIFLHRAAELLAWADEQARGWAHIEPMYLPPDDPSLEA
Chain of full length human TREX1 (Q9NSU2 whole entry): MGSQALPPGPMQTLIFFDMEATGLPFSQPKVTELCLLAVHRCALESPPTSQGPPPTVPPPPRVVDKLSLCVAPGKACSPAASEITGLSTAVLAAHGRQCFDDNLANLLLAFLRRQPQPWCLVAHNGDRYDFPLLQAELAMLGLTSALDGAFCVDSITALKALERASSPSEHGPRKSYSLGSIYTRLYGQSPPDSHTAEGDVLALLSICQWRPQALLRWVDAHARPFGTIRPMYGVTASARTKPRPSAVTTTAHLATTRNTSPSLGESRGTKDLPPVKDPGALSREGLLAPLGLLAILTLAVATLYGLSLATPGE

Compound | IC50 (full length human TREX1) [µM] | IC50 [1] [µM]
Cn1c(CC2CCN(C(=O)OC(C)(C)C)CC2)nc(C(=O)Nc2cnoc2)c(O)c1=O [Example 17, tert-butyl 4-((5-hydroxy-4-(isoxazol-4-ylcarbamoyl)-1-methyl-6-oxo-1,6-dihydropyrimidin-2-yl)methyl)piperidine-1-carboxylate] | 1 to 10 | 10 to 100
COc1ccccc1C(=O)N1CCCC(c2nc(C(=O)Nc3cnoc3)c(O)c(=O)n2C)C1 (stereo not drawn) [Example 41, 5-hydroxy-N-(isoxazol-4-yl)-2-(1-(2-methoxybenzoyl)piperidin-3-yl)-1-methyl-6-oxo-1,6-dihydropyrimidine-4-carboxamide] | 0.1 to 1 | 10 to 100
CN(C)CCCC(=O)N1CCCC(c2nc(C(=O)Nc3cnoc3)c(O)c(=O)n2C)C1 (stereo not drawn) [Example 60, 2-(1-(4-(dimethylamino)butanoyl)piperidin-3-yl)-5-hydroxy-N-(isoxazol-4-yl)-1-methyl-6-oxo-1,6-dihydropyrimidine-4-carboxamide] | 1 to 10 | 10 to 100
Cn1c(-c2cc(Br)ccc2OCCO)nc(C(=O)Nc2cnoc2)c(O)c1=O [Example 70, 2-(5-bromo-2-(2-hydroxyethoxy)phenyl)-5-hydroxy-N-(isoxazol-4-yl)-1-methyl-6-oxo-1,6-dihydropyrimidine-4-carboxamide] | < 0.1 | 1 to 10

Next, values leading:

IC50 (full length human TREX1) [µM] | IC50 [1] [µM] | Compound
0.1 to 1 | 10 to 100 | Cn1c(C2(NC(=O)OCc3ccccc3)CC2)nc(C(=O)Nc2cnoc2)c(O)c1=O [Example 7, benzyl (1-(5-hydroxy-4-(isoxazol-4-ylcarbamoyl)-1-methyl-6-oxo-1,6-dihydropyrimidin-2-yl)cyclopropyl)carbamate]
0.1 to 1 | 1 to 10 | Cn1c(C2CCCN(C(=O)c3ccncc3)C2)nc(C(=O)Nc2cnoc2)c(O)c1=O (stereo not drawn) [Example 63, 5-hydroxy-2-(1-isonicotinoylpiperidin-3-yl)-N-(isoxazol-4-yl)-1-methyl-6-oxo-1,6-dihydropyrimidine-4-carboxamide]
